Key:
Coagulation factor X [1] = target: T1, Coagulation factor X (Homo sapiens, UniProt P00742); test: Binding affinity against serine protease factor Xa (fXa)
Prothrombin = Prothrombin (Homo sapiens, UniProt P00734); test: Binding affinity against thrombin
Serine protease 1 = Serine protease 1 (Homo sapiens, UniProt P07477); test: Binding affinity against trypsin
Coagulation factor X [2] = target: T1, Coagulation factor X; test: Binding affinity against serine protease Coagulation factor X
[3] = target: Vitamin K-dependent protein C (Homo sapiens, UniProt P04070); test: Binding affinity against activated protein C (APC)
Plasminogen = Plasminogen (Homo sapiens, UniProt P00747); test: Binding affinity against plasmin
[4] = target: Tissue-type plasminogen activator (Homo sapiens, UniProt P00750); test: Binding affinity against tissue plasminogen activator (t-Pa)
[5] = target: Coagulation factor X (Rattus norvegicus) (UniProt Q63207); test: Inhibitory activity against factor Xa in rat plasma
Chain of Coagulation factor X (Rattus norvegicus) (Q63207 whole entry, looked up): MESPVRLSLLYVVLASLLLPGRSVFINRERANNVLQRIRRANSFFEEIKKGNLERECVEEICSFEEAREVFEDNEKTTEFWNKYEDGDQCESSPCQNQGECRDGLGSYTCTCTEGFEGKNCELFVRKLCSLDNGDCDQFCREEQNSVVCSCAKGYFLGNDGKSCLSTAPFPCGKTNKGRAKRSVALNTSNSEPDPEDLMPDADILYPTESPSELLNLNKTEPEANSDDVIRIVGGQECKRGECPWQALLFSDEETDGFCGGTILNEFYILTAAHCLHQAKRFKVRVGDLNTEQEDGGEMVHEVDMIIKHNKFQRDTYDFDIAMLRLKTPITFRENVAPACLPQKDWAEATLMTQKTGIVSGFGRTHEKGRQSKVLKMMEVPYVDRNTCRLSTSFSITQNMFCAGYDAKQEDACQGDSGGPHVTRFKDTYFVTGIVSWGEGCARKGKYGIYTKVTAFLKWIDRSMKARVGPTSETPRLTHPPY

Chain of Tissue-type plasminogen activator (P00750 whole entry): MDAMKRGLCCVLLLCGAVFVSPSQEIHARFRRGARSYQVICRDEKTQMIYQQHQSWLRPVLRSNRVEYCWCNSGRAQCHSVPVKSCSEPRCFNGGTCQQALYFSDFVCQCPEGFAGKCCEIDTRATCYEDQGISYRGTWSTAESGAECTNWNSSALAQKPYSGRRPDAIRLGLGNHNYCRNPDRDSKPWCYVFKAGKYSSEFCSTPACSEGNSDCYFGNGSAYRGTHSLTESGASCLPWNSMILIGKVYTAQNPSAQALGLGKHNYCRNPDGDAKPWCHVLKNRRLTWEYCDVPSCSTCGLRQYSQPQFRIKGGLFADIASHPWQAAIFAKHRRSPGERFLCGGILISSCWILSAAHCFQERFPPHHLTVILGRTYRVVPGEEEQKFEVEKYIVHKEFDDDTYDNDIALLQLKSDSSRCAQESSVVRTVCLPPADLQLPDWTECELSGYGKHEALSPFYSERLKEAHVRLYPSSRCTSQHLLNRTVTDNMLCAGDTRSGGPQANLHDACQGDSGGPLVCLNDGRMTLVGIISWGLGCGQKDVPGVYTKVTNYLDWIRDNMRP
Chain of Vitamin K-dependent protein C (P04070 43-197 limits assumed): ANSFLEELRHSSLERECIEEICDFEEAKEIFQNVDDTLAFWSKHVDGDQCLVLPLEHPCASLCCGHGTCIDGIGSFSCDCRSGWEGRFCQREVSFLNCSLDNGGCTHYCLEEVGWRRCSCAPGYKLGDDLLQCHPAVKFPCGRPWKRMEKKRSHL
Chain of Vitamin K-dependent protein C (P04070 212-461 limits assumed): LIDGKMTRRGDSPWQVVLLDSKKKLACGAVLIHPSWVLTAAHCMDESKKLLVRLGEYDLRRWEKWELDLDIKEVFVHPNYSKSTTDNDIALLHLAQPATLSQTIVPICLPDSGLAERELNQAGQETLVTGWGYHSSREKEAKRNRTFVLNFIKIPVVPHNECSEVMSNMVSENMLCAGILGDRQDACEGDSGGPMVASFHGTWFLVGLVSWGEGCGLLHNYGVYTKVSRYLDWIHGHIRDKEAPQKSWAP
Chain of Serine protease 1 (P07477 whole entry): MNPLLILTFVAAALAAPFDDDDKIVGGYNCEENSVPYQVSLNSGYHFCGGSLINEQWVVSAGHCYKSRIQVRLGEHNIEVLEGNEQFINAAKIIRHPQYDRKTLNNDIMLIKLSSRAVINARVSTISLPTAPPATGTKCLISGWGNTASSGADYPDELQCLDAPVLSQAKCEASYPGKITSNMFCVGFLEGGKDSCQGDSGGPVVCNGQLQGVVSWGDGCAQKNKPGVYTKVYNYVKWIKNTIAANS
Chain of Plasminogen (P00747 97-580 limits assumed): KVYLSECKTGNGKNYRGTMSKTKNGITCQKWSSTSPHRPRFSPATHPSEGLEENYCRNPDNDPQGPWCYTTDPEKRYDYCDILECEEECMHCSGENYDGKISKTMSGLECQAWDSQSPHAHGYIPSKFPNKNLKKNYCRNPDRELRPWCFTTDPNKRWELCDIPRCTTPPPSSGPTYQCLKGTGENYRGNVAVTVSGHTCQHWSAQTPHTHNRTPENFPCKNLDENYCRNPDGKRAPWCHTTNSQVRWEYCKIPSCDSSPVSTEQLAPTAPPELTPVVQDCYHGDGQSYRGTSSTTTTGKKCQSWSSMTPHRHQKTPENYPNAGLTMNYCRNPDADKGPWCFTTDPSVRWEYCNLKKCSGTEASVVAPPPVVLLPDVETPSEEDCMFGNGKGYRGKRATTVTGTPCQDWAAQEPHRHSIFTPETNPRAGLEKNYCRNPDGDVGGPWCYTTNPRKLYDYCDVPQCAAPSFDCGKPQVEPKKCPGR
Chain of Plasminogen (P00747 581-810 limits assumed): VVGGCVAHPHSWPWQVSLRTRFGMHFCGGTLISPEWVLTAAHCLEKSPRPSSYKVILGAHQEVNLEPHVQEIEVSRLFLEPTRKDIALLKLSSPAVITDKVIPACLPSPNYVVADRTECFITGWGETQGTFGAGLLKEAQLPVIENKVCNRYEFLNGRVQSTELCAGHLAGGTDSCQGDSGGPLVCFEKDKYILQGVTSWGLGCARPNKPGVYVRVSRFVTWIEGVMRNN
T1 sequence (P00742 41-179 limits assumed): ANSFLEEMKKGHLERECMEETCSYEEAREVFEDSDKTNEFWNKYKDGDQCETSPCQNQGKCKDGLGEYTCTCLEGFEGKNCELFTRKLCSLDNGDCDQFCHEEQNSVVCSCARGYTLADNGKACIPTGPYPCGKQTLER
T1 sequence (P00742 235-488 limits assumed): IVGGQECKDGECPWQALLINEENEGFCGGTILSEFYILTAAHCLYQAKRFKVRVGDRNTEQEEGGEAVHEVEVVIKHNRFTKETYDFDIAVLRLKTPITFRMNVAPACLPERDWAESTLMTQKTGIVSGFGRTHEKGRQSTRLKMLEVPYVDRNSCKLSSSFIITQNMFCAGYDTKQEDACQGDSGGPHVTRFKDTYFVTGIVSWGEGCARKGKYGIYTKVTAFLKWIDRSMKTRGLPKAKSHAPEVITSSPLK

| SMILES | Ki (Coagulation factor X [1]) | Ki (Prothrombin) | Ki (Serine protease 1) | Ki (Coagulation factor X [2]) | Ki [3] | Ki (Plasminogen) | Ki [4] | IC50 [5] |
| --- | --- | --- | --- | --- | --- | --- | --- | --- |
| N=C(N)c1cccc(CN2CC[C@H](NS(=O)(=O)c3cc4c(Cl)nccc4s3)C2=O)c1 | 39 nM | > 4000 nM | > 2900 nM | – | – | – | – | – |
| N=C(N)c1cccc(CN2CC[C@H](NS(=O)(=O)c3ccc4ccncc4c3)C2=O)c1 | – | > 4000 nM | > 2900 nM | 510 nM | – | – | – | – |
| N=C(N)c1cccc(CN2CC[C@H](NS(=O)(=O)c3cc4cccnc4s3)C2=O)c1 | 88 nM | > 4000 nM | 2900 nM | – | – | – | – | – |
| N=C(N)c1ccc(O)c(CN2CC[C@H](NS(=O)(=O)c3cc4cnccc4s3)C2=O)c1 | 3 nM | 2600 nM | > 2900 nM | – | > 18000 nM | > 7300 nM | 8700 nM | – |
| N=C(N)c1ccc(O)c(CN2CC[C@H](NS(=O)(=O)c3cc4ncccc4s3)C2=O)c1 | 0.7 nM | 4000 nM | 1000 nM | – | 5200 nM | 2300 nM | 360 nM | – |
| N=C(N)c1cccc(CN2CC[C@H](NS(=O)(=O)c3cc4ccc(Cl)nc4s3)C2=O)c1 | – | > 4000 nM | > 2900 nM | 120 nM | – | – | – | – |
| Cc1c(S(=O)(=O)N[C@H]2CCN(Cc3cccc(C(=N)N)c3)C2=O)sc2ccc(Cl)cc12 | – | – | – | 36 nM | – | – | – | – |
| N=C(N)c1cccc(CN2CC[C@H](NS(=O)(=O)c3ccc4c(N)nccc4c3)C2=O)c1 | – | > 4000 nM | > 2900 nM | 90 nM | – | – | – | – |
| N=C(N)c1ccc(O)c(CN2CC[C@H](NS(=O)(=O)c3cc4nc(Cl)ccc4s3)C2=O)c1 | 1.5 nM | 920 nM | 1600 nM | – | 11000 nM | 3600 nM | 2700 nM | – |
| N=C(N)c1ccc(N)c(CN2CC[C@H](NS(=O)(=O)c3cc4nc(Cl)ccc4s3)C2=O)c1 | 3 nM | 1100 nM | 1800 nM | – | 4200 nM | 1500 nM | > 8700 nM | – |
| N=C(N)c1cccc(CN2CC[C@H](NS(=O)(=O)c3ccc4ccc(N)nc4c3)C2=O)c1 | – | > 4000 nM | > 2900 nM | 240 nM | – | – | – | – |
| N=C(N)c1cccc(CN2CC[C@H](NS(=O)(=O)c3ccc4ccc(Cl)nc4c3)C2=O)c1 | – | > 4000 nM | > 2900 nM | 720 nM | – | – | – | – |
| COc1ccc2ccc(S(=O)(=O)N[C@H]3CCN(Cc4cccc(C(=N)N)c4)C3=O)cc2n1 | – | > 4000 nM | > 2900 nM | 480 nM | – | – | – | – |
| N=C(N)c1cccc(CN2CC[C@H](NS(=O)(=O)c3ccc4ccnc(N)c4c3)C2=O)c1 | – | > 4000 nM | > 2900 nM | 490 nM | – | – | – | – |
| N=C(N)c1cccc(CN2CC[C@H](NS(=O)(=O)c3ccc4cccnc4c3)C2=O)c1 | – | > 4000 nM | > 2900 nM | 420 nM | – | – | – | – |
| COc1ccc2ccc(S(=O)(=O)N[C@H]3CCN(Cc4cc(C(=N)N)ccc4O)C3=O)cc2c1 | – | – | 305 nM | – | 1970 nM | 2350 nM | 1070 nM | – |

Other lines, results leading:

| Ki (Coagulation factor X [1]) | Ki (Prothrombin) | Ki (Serine protease 1) | Ki (Coagulation factor X [2]) | Ki [3] | Ki (Plasminogen) | Ki [4] | IC50 [5] | SMILES |
| --- | --- | --- | --- | --- | --- | --- | --- | --- |
| > 1200 nM | > 4000 nM | > 2900 nM | – | – | – | – | – | CCOc1ccc2cc(S(=O)(=O)N[C@H]3CCN(Cc4cccc(C(=N)N)c4)C3=O)ccc2n1 |
| 2 nM | 4000 nM | > 2900 nM | – | 8000 nM | 4500 nM | 8700 nM | – | N=C(N)c1ccc(O)c(CN2CC[C@H](NS(=O)(=O)c3cc4c(Cl)nccc4s3)C2=O)c1 |
| – | – | – | ~75 nM | – | – | – | – | N=C(N)c1cccc(CN2CC[C@H](NS(=O)(=O)c3ccc4cc(Cl)c(Cl)cc4c3)C2=O)c1 |
| 110 nM | > 4000 nM | > 2900 nM | – | – | – | – | – | N=C(N)c1cccc(CN2CC[C@H](NS(=O)(=O)c3ccc4nc(Cl)ccc4c3)C2=O)c1 |
| 26 nM | > 4000 nM | > 2900 nM | – | 12000 nM | > 7300 nM | > 8700 nM | – | N=C(N)c1cccc(CN2CC[C@H](NS(=O)(=O)c3cc4ncccc4s3)C2=O)c1 |
| 31 nM | 3100 nM | > 2900 nM | – | > 18000 nM | 5800 nM | > 8700 nM | – | N=C(N)c1cccc(CN2CC[C@H](NS(=O)(=O)c3cc4nc(Cl)ccc4s3)C2=O)c1 |
| – | > 4000 nM | > 2900 nM | 380 nM | – | – | – | – | N=C(N)c1cccc(CN2CC[C@H](NS(=O)(=O)c3ccc4cnccc4c3)C2=O)c1 |
| 200 nM | > 4000 nM | > 2900 nM | – | – | – | – | – | N=C(N)c1cccc(CN2CC[C@H](NS(=O)(=O)c3ccc4ncccc4c3)C2=O)c1 |
| – | 2000 nM | > 2900 nM | 2 nM | 18000 nM | 6200 nM | > 8700 nM | 11 nM | N=C(N)c1ccc(O)c(CN2CC[C@H](NS(=O)(=O)c3cc4ccncc4s3)C2=O)c1 |
| 160 nM | > 4000 nM | > 2900 nM | – | – | – | – | – | N=C(N)c1cccc(CN2CC[C@H](NS(=O)(=O)c3ccc4nc(N)ccc4c3)C2=O)c1 |
| 5 nM | 2600 nM | > 2900 nM | – | 5500 nM | 7300 nM | 7500 nM | – | N=C(N)c1ccc(O)c(CN2CC[C@H](NS(=O)(=O)c3cc4ccnc(Cl)c4s3)C2=O)c1 |
| 5 nM | 210 nM | 860 nM | – | 9500 nM | > 7300 nM | > 8700 nM | – | COc1ccc2sc(S(=O)(=O)N[C@H]3CCN(Cc4cc(C(=N)N)ccc4N)C3=O)cc2n1 |

— ChEMBL document CHEMBL1131988, “Synthesis, SAR and in vivo activity of novel thienopyridine sulfonamide pyrrolidinones as factor Xa inhibitors” (Bioorg Med Chem Lett, 1999)
